# Measured values: patent publication US11667668B2, “Compositions and methods for treating CNS disorders” (Sage Therapeutics, Inc., priority 2017, dated 2023)
# Target: rat brain cortical membranes ([35S]-TBPS binding; GABAA receptor)
# Experiment: Steroid inhibition of [35S]-TBPS binding
# Details: 3 nM [35S]-TBPS, in the presence of 5 mM GABA, 90 min at room temp
# Experimental: [35S]-t-Butylbicyclophosphorothionate (TBPS) binding assays using rat brain cortical membranes in the presence of 5 mM GABA has been described (Gee et al, J. Pharmacol. Exp. Ther. 1987, 241, 346-353; Hawkinson et al, Mol. Pharmacol. 1994, 46, 977-985; Lewin, A. H et al., Mol. Pharmacol. 1989, 35, 189-194).
# Briefly, cortices are rapidly removed following decapitation of carbon dioxide-anesthetized Sprague-Dawley rats (200-250 g). The cortices are homogenized in 10 volumes of ice-cold 0.32 M sucrose using a glass/teflon homogenizer and centrifuged at 1500×g for 10 min at 4° C. The resultant supernatants are centrifuged at 10,000×g for 20 min at 4° C. to obtain the P2 pellets. The P2 pellets are resuspended in 200 mM NaCl/50 mM Na—K phosphate pH 7.4 buffer and centrifuged at 10,000×g for 10 min at 4° C. This washing procedure is repeated twice and the pellets are resuspended in 10 volumes of buffer. Aliquots ([…]) of the membrane suspensions are incubated with 3 nM [35S]-TBPS and 5 mL aliquots of test drug dissolved in dimethyl sulfoxide (DMSO) (final 0.5%) in the presence of 5 mM GABA. The incubation is brought to a final volume of 1.0 mL with buffer. Nonspecific binding is determined in the presence of […] and ranged from 15 to 25%. […] Filter bound radioactivity is measured by liquid scintillation spectrometry. […]
row,SMILES,IC50
1,"[2H]C([2H])([2H])[C@@]1(O)CC[C@H]2[C@H](CC[C@@H]3[C@@H]2CC[C@]2(C)[C@@H](C(=O)Cn4cc(C#N)cn4)CC[C@@H]32)C1 [Compound 1, 1-(2-((3R,5R,8R,9R,10S,13S,14S,17S)-3-hydroxy-13-methyl-3-(methyl-d3)hexadecahydro-1H-cyclopenta[a]phenanthren-17-yl)-2-oxoethyl)-1H-pyrazole-4-carbonitrile]",< 10 nM
2,"[2H][C@]1(C(=O)Cn2cc(C#N)cn2)CC[C@H]2[C@@H]3CC[C@@H]4C[C@](C)(O)CC[C@@H]4[C@H]3CC[C@@]21C [Compound A10, 1-(2-((3R,5R,8R,9R,10S,13S,14S,17S)-3-hydroxy-3,13-dimethylhexadecahydro-1H-cyclopenta[a]phenanthren-17-yl-17-d)-2-oxoethyl)-1H-pyrazole-4-carbonitrile]",< 10 nM
